Consider eight compounds from patent EP1480941B1, “UREA DERIVATIVES AS HIV ASPARTYL PROTEASE INHIBITORS” (priority 2002, dated 2003).

The test system of one data set is MT-4. The data set is described as follows: Cytotoxicity assay in vitro (MTT assay, virus omitted). The class given is cell-based. The source says:
(§1) Anti-viral and cytotoxicity assays in vitro
(§2) We also use some WT clinical strains.

Data set [1] deals with laboratory viral strain NL4.3. The data set is described as follows: Anti-viral assay in vitro (MTT assay on infected MT-4 cells). Format: cell-based, HIV-1. The conditions noted are these: Human immunodeficiency virus 1, MT4, 144 h, infected MT-4 cells incubated six days, average of at least two determinations.
From the text: as §1, §2

The next data set concerns the target HIV protease (Human immunodeficiency virus type 1 group M subtype B, UniProt P04585). The data set is described as follows: Enzymatic (fluorometric FRET) assay for determining the inhibition constant (Ki). Format: biochemical. The conditions noted are these: Ki, EDANS/DABCYL substrate, equation of Henderson. The text has this: Enzymatic assay for determining the inhibition constant (Ki) of synthetic compounds targeting the HIV protease
This is a fluorometric assay based on the cleavage by protease of a substrate carrying a donor group (EDANS) and an acceptor group (DABCYL) on each side of the cleavage site, interacting together through fluorescence resonance energy transfer (FRET) as described by Matayoshi et al. (Science 247:[…], 1990).
After calculation of Vo and Vi, the inhibition constant (Ki) of the compound is determined using the equation of Henderson: (Vo)/(Vi) = 1 + ([I])/(Kiapp) Where Ki = (Kiapp)/((1 + [S])/(Km)) [formula] where Vo = the enzyme's initial velocity Vi = the enzyme velocity in the presence of the inhibitory compound, [I] = inhibitor concentration, [S] = substrate concentration, Km = Michaelis-Menten constant and Kiapp = apparent Ki
Graphs are traced and the Ki determined using GraphPad Prism software v. 3.0.

Where [2] appears, read: cell culture IC50, same MTT assay with virus omitted, average of at least two determinations.

pEC50, pKi: −log10 of the molar value.

Take `Cc1ccc(S(=O)(=O)N(CC(C)C)[C@H](CO)CCCCNC(=O)N(Cc2ccccc2)Cc2cccc([N+](=O)[O-])c2)cc1` [Example 60, (2S) 2-N-isobutyl-2-N-(4-methylbenzenesulfonyl)-6-N-[N'-benzyl-N'-(3-nitrobenzyl)aminocarbonyl]-2,6-diaminohexanol]: the CCIC50 in the data set with MT-4 (setting [2]) amounted to 4.6 µM. Besides, the pEC50 in data set [1] was 5.74.

The compound `Cc1ccc(S(=O)(=O)N(CC(C)C)[C@H](CO)CCCCNC(=O)N(Cc2ccccc2)Cc2ccc([N+](=O)[O-])cc2)cc1` [Example 61, (2S) 2-N-isobutyl-2-N-(4-methylbenzenesulfonyl)-6-N-[N'-benzyl-N'-(4-nitrobenzyl)aminocarbonyl]-2,6-diaminohexanol] had a CCIC50 in the data set with MT-4 (setting [2]) of 5.1 µM. In addition, the pEC50 in data set [1] is 5.42.

Compound `CC(C)CN([C@H](CO)CCCCNC(=O)N(Cc1ccc(F)cc1)Cc1ccc2c(c1)OCO2)S(=O)(=O)c1ccc(N)cc1` [Example 67, (2S) 2-N-(4-aminobenzenesulfonyl)-2-N-isobutyl-6-N-[N'-(4-fluorobenzyl)-N'-piperonylaminocarbonyl]-2,6-diaminohexanol] showed a CCIC50 with MT-4 (setting [2]) of 11 µM. In addition, the pEC50 in data set [1] was 6.31.

Consider `CC(C)CN([C@H](CO)CCCCNC(=O)N(Cc1ccccc1)Cc1ccc2c(c1)OCO2)S(=O)(=O)c1ccc(N)cc1` [Example 82, (2S) 2-N-(4-aminobenzenesulfonyl)-2-N-isobutyl-6-N-(N'-benzyl-N'-piperonylaminocarbonyl)-2,6-diaminohexanol], for which, in the data set on MT-4 (setting [2]), the CCIC50 is 12.5 µM. The pEC50 in data set [1] was 5.85.

In the data set on MT-4 (setting [2]), `CC(C)CN([C@H](CO)CCCCNC(=O)N(Cc1ccc2c(c1)OCO2)Cc1ccc2c(c1)OCO2)S(=O)(=O)c1ccc(N)cc1` [Example 85, (2S) 2-N-(4-aminobenzenesulfonyl)-2-N-isobutyl-6-N-(N',N'-dipiperonylaminocarbonyl)-2,6-diaminohexanol] returned a CCIC50 of 13.1 µM. Also, the pEC50 in data set [1] is 6.89.

`CC(C)CCN([C@H](CO)CCCCNC(=O)N(Cc1ccncc1)Cc1ccc2c(c1)OCO2)S(=O)(=O)c1ccc(N)cc1` [Example 95, (2S) 2-N-(4-aminobenzenesulfonyl)-2-N-(3-methylbutyl)-6-N-[N'-(4-picolyl)-N'-piperonylaminocarbonyl]-2,6-diaminohexanol] gave a pKi on HIV protease of 8.15. The CCIC50 in the data set on MT-4 (human, 6 days) stood at 28.8 µM. This compound also showed a pEC50 in data set [1] of 6.26.

`CC(C)CCN([C@H](CO)CCCCNC(=O)N(Cc1ccc(F)cc1)Cc1ccc2c(c1)OCO2)S(=O)(=O)c1ccc(N)cc1` [Example 102, (2S) 2-N-(4-aminobenzenesulfonyl)-2-N-(3-methylbutyl)-6-N-[N'-(4-fluorobenzyl)-N'-piperonylaminocarbonyl]-2,6-diaminohexanol]: on HIV protease, the pKi was 8.31. In the data set with MT-4 (human, 6 days), this compound came in with a CCIC50 of 24.4 µM. This compound had a pEC50 in data set [1] of 5.92.

On HIV protease, `COc1cc(CN(Cc2ccc3c(c2)OCO3)C(=S)NCCCC[C@@H](CO)N(CCC(C)C)S(=O)(=O)c2ccc(N)cc2)cc(OC)c1OC` [Example 107, (2S) 2-N-(4-aminobenzenesulfonyl)-2-N-(3-methylbutyl)-6-N-[N'-(3,4,5-trimethoxybenzyl)-N'-piperonylaminothiocarbonyl]-2,6-diaminohexanol] gave a pKi of 8.31. Further, the CCIC50 in the data set with MT-4 (human, 6 days) turned out to be 10.7 µM. In addition, the pEC50 in data set [1] was 6.17.

In general, pEC50 refers to the negative decadic logarithm of the EC50, by convention in mol/L. Higher therefore signals a small EC50. The pKi is the negative decadic logarithm of the Ki, by convention in mol/L. The low end stands for a large Ki, the high end for a small Ki.
